From patent publication US8765690B2, “Treatment of cancer with glufosfamide in patients not receiving insulin therapy” (Threshold Pharmaceuticals, Inc., priority 2007, dated 2014) come the findings set out here.

Assay [1] deals with gemcitabine resistant metastatic pancreatic cancer. Briefly: Phase 3 clinical trial of glufosfamide versus best supportive care, overall survival. It is filed as in vivo, human. The settings on record: for Actual overall survival: individual diabetic patient, named GLD given orally in combination with glufosfamide 4500 mg/m^2 over 6 hours once every 3 weeks; for relative risk for overall survival in Group 1 and Group 2 patients: glufosfamide vs BSC. The procedure: Glufosfamide is a prodrug of an alkylating agent useful in the treatment of cancer. A multi-center, randomized, open-label phase 3 clinical trial was conducted to evaluate the safety and efficacy of glufosfamide in treating gemcitabine resistant metastatic pancreatic cancer as measured by overall survival compared to BSC (best supportive care). Three hundred and three patients were randomized to the trial: 148 patients were randomized to the glufosfamide arm (n=148, Group 1) and 155 to BSC (n=155, Group 2).
Patients in Group 1 were administered glufosfamide for up to 42 weeks. Glufosfamide was administered intravenously over 6 hours once every 3 weeks at 4500 mg/m^2 for up to 14 doses.
One-quarter of the dose was infused over 30 minutes and the remainder over the following five and one-half hours.
To assess the efficacy of glufosfamide treatment, patients in Group 1 and Group 2 were not administered any medication known to have antitumor effects other than glufosfamide, e.g., the patients were not administered any other chemotherapy or systemic cytotoxic/cytostatic agents. However, other appropriate supportive measures and concomitant medications not known to have antitumor effects, such as analgesics, antibiotics, transfusions, hematopoietic colony-stimulating factors (as therapy but not as prophylaxis), erythropoietin, and megestrol acetate for appetite stimulation were administered when appropriate.
Tumor assessment was performed at baseline and once every 6 weeks for the first 24 weeks and then once every 9 weeks. The primary efficacy indicator was the overall survival in Group 1 compared to that in Group 2.
Seven diabetic patients (Group 1A) having gemcitabine resistant pancreatic cancer were treated with glufosfamide for 2-11 cycles in combination with various glucose lowering drugs (GLDs) other than insulin (see Table 2 below). Glufosfamide was administered intravenously over 6 hours, once every 3 weeks, at 4500 mg/m^2. The GLD was administered orally, once every day or qd, […] prior to the first glufosfamide administration; except that, the GLD was administered to patient no. 6 three times daily or tid. […] Tumor assessment was performed at baseline and once every 6 weeks for the first 24 weeks and then once every 9 weeks. Efficacy outcomes were evaluated based on comparing the overall median survival in Group 1A with that in Group 2A. The median overall survival in the Group 1A patients was 418 days (95% CI; 85 days-643 days) compared to 84 days (95% CI; 45 days-102 days) for those in group 2A (FIG. 3).

A further assay concerns MiaPaCa-2-RFP tumor. Briefly: Surgical orthotopic implantation MiaPaCa-2-RFP pancreatic tumor model in nude mice, survival. Format: in vivo, NCr nu/nu mice. The procedure:
A total of sixty male NCr nu/nu mice, 5-6 weeks old, were used in the study. Original breeding pairs were purchased from Taconic, Germantown, N.Y. Test animals were bred and maintained in a HEPA filtered environment for the experiment. Cages, food and bedding were autoclaved. The animal diets were obtained from PMI Nutrition International Inc. (Brentwood, Mo.).
RFP gene transduction of MiaPaCa-2 cells: For RFP gene transduction, 20% confluent MiaPaCa-2 cells (ATCC, Rockville, Md.) were incubated with a 1:1 precipitated mixture of retroviral supernatants of PT67 cells and RPMI 1640 for 72 h. Fresh medium was replenished at this time. MiaPaCa-2 cells were harvested by trypsin-EDTA 72 h posttransduction and subcultured at a ratio of 1:15 into selective medium that contained 200 μg/ml G418. The level of G418 was increased to 1000 μg/ml stepwise. The brightest MiaPaCa-2 cell clones expressing RFP were selected, combined, and then amplified and transferred by conventional culture methods.
Subcutaneous Xenografts: Tumor stocks were made by subcutaneously injecting MiaPaCa-2-RFP cells at a concentration of 5×10^6 cells/200 μl into the flank of nude mice. see e.g., Bouvet et al. Cancer Res., 2002, 62, 1534-40 incorporated herein by reference. The strong RFP expression of tumors grown in the subcutis of mice was confirmed before harvest. The tumor tissues harvested from s.c growth in nude mice were inspected, and any grossly necrotic or suspected necrotic or non-RFP tumor tissues were removed. Tumor tissues were subsequently cut into small fragments of approximately 2 mm^3. […]
Statistical methods used in efficacy evaluation: Tumor volumes and tumor weights were compared using the Student's t-test with an α=0.05. Metastatic frequency of all groups were analyzed with Fisher's exact test with an α=0.05. Comparison of animal survival time between each treatment group and untreated control was analyzed using the Log-rank analysis with an α=0.05.

“And” between values parts separate entries of the source, which are not always exact repeats. Equal values may be shown once. Where a name gives a salt, the structure may show the parent alone.

Regarding `COc1ccc(Cl)cc1C(=O)NCCc1ccc(S(=O)(=O)NC(=O)NC2CCCCC2)cc1` [Glibenclamide], in assay [1], the Actual overall survival was 85 and 643.
With `Cc1ccc(S(=O)(=O)NC(=O)NN2CC3CCCC3C2)cc1` (stereo not shown) [Gliclazide], the Actual overall survival in assay [1] is 145 and 476+.
Take `CCC1=C(C)CN(C(=O)NCCc2ccc(S(=O)(=O)NC(=O)N[C@H]3CC[C@H](C)CC3)cc2)C1=O` [Glimepiride]: the Actual overall survival in assay [1] is given as 54.
On the same count and under the same terms, the value for `Cc1cnc(C(=O)NCCc2ccc(S(=O)(=O)NC(=O)NC3CCCCC3)cc2)cn1` [Glipizide] was 418; that for `CN(CCOc1ccc(CC2SC(=O)NC2=O)cc1)c1ccccn1` (stereo not shown) [Rosiglitazone maleate] was 479.
Turning to `O=P(NCCCl)(NCCCl)O[C@@H]1O[C@H](CO)[C@@H](O)[C@H](O)[C@H]1O` [glufosfamide, beta-D-glucosyl-ifosfamide mustard], the median overall survival in assay [1] (Group 1 (n=148), glufosfamide 4500 mg/m^2 i.v. over 6 hours once every 3 weeks, all randomized patients) came to 105 days; in assay [1] (Group 1 patients (n=123) not administered insulin prior to first glufosfamide administration) it was 115 days; in assay [1] (seven diabetic Group 1 patients (Group 1A) on glufosfamide plus a glucose lowering drug other than insulin, no prior insulin), 418 days; in the assay on MiaPaCa-2-RFP tumor (glufosfamide 50 mg/kg i.v. qd x 7 alone), 26 days; in the assay with MiaPaCa-2-RFP tumor (glufosfamide 50 mg/kg i.v. qd x 7 in combination with glimepiride 12 mg/kg p.o. qd x 14, log rank p<0.01), 35 days. Also, the “relative risk for overall survival in Group 1 and Group 2 patients” value in assay [1] (diabetic patients receiving glucose lowering drug other than insulin, p=0.020) came to 0.24; in assay [1] (proportional hazards model stratified by KPS, all patients, p=0.187) it was 0.848; in assay [1] (patients not administered insulin prior, p=0.048), 0.761. Also, the “benefit from the administration of glufosfamide” value was “more benefit” in assay [1] (patients receiving a glucose lowering drug other than insulin, compared with patients not receiving such drugs) and “no benefit or less benefit” in assay [1] (patients receiving insulin). For the same compound, in the assay on MiaPaCa-2-RFP tumor (glufosfamide 50 mg/kg in combination with glimepiride 12 mg/kg, FIG. 4), the “survival improvement compared to glufosfamide administered alone” value is on record as “more effective in extending survival”.
